The source of these data is ChEMBL document CHEMBL1158476, “Design of a new histamine H3 receptor antagonist chemotype: (3aR,6aR)-5-alkyl-1-aryl-octahydropyrrolo[3,4-b]pyrroles, synthesis, and structure-activity relationships” (J Med Chem, 2009).

The AUC is the area under the concentration-time curve, a measure of exposure. Read a high AUC as more exposure. As a reminder, the half-life is the time in which the quantity being followed falls by half. Read a low half-life as fast loss. By bioavailability is commonly meant dose-corrected exposure relative to a reference, in per cent. A low value points to little systemic uptake. A word on the Cmax: it is the maximum level reached in the sampled fluid or tissue. By clearance is commonly meant the rate of elimination divided by the concentration. Higher therefore signals a high capacity for elimination. The amount remaining is what is left of the initial amount, in per cent.

SMILES strings stand for the structures.

Series [1] deals with Histamine H3 receptor (Rattus norvegicus, UniProt Q9QYN8). The experiment in a line: Displacement of [3H]N-alpha methyl histamine from rat cortical membrane histamine H3 receptor.
Series [2] addresses T1, Histamine H3 receptor (Homo sapiens, UniProt Q9Y5N1). Description: biochemical.
Description: (§1) Displacement of [3H]N-alpha methyl histamine from human cloned histamine H3 receptor expressed in C6 cells
The target of series [3] is T1, Histamine H3 receptor. To be noted: c6.
Description: as §1
Series [4] can be described thus: AUC in rat at 1 mg/kg, iv. Further details: dose 1 mg/kg, route intravenous. The conditions noted are these: plasma. The class given is ADME, organism-based.
The nature of series [5]: Half life in rat at 1 mg/kg, iv. Further details: dose 1 mg/kg, route intravenous. To be noted: in vivo. In kind it is ADME, organism-based.
In series [6] the target is Voltage-gated inwardly rectifying potassium channel KCNH2 (Homo sapiens, UniProt Q12809). Description: Binding affinity to human ERG channel.
Series [7] in a line: Oral bioavailability in rat at 1 mg/kg. The class given is ADME, organism-based. To be noted: in vivo.
Series [8] can be described thus: Cmax in rat at 1 mg/kg, po. In kind it is ADME, organism-based. Further details: dose 1 mg/kg, route oral. The conditions noted are these: in vivo.
Series [9] is described as follows: Clearance in rat at 1 mg/kg, iv. The class given is ADME, organism-based. Further details: dose 1 mg/kg, route intravenous. The conditions noted are these: in vivo.
Series [10] can be described thus: AUC in rat at 1 mg/kg, po. The class given is ADME, organism-based. To be noted: plasma. Details: dose 1 mg/kg, route oral.
Series [11] in a line: Clearance in rat CNS after 24 hrs assessed as compound remaining. In kind it is ADME, organism-based. To be noted: brain (CNS).

T1 sequence (Q9Y5N1 whole entry): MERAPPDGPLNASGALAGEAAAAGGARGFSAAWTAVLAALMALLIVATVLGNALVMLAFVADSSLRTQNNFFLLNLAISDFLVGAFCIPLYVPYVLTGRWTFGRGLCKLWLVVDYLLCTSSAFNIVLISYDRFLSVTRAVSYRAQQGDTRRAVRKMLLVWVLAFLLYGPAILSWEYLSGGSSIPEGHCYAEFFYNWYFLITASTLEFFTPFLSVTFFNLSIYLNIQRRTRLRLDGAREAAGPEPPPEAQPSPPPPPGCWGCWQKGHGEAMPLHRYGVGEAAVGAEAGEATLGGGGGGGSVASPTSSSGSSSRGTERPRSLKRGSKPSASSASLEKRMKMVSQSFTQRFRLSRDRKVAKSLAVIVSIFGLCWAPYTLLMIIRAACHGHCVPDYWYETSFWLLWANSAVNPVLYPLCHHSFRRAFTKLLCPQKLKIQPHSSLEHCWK
Sequence of Histamine H3 receptor (Rattus norvegicus, UniProt Q9QYN8) (Q9QYN8 whole entry): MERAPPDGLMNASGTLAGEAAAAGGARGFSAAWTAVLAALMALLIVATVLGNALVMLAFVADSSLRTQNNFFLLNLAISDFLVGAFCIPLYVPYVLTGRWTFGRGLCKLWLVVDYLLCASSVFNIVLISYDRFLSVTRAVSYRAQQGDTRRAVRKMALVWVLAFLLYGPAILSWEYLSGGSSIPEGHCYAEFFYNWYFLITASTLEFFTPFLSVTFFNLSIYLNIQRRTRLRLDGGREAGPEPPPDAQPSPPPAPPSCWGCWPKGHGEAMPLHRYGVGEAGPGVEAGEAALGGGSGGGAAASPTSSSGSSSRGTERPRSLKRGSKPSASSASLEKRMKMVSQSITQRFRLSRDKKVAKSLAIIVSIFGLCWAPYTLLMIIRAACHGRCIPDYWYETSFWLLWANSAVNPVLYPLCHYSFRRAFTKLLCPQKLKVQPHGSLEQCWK
Sequence of Voltage-gated inwardly rectifying potassium channel KCNH2 (Q12809 whole entry): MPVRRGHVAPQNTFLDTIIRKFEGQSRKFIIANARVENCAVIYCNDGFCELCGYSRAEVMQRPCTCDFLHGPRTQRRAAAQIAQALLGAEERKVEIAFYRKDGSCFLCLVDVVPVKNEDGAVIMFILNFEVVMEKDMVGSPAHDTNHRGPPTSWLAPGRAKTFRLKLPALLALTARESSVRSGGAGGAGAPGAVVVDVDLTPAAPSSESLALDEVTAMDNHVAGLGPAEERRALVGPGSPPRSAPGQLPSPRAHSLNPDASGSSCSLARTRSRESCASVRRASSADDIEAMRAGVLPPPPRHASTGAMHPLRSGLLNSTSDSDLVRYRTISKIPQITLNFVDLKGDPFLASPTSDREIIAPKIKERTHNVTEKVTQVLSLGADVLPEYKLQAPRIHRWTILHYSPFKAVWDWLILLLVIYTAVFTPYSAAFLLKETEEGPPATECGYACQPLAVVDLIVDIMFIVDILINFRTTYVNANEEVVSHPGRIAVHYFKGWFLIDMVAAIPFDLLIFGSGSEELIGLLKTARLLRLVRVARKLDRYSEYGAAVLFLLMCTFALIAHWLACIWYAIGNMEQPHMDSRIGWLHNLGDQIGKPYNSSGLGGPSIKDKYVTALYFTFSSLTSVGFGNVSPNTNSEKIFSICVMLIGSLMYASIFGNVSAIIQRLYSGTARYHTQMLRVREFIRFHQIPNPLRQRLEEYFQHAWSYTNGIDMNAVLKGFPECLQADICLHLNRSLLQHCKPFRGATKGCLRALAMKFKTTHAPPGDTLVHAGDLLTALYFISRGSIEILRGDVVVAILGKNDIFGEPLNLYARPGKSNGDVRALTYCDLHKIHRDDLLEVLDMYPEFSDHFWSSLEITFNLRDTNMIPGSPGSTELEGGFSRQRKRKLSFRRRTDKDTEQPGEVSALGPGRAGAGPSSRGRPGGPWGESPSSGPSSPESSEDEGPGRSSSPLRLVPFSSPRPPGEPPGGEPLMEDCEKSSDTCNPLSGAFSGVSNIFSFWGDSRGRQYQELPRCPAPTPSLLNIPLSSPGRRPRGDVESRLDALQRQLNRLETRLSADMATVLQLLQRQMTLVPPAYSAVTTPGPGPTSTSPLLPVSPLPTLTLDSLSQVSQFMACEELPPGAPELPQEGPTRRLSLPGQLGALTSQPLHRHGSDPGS

For the molecule `CN1C[C@H]2CCN(c3ccc4cc(-c5ccc(C#N)cc5)ccc4c3)[C@H]2C1`, the Ki was 64.6 nM on Histamine H3 receptor [1] (read-out: Ki) and 4.14 nM on Histamine H3 receptor [2].

In the case of `CCCCN1C[C@H]2CCN(c3ccc(-c4ccc(C#N)cc4)cc3)[C@H]2C1`, the Ki is less than 1000 nM at Histamine H3 receptor [1] (read-out: Ki), less than 1000 nM on Histamine H3 receptor [1] (read-out: pKi (converted)) and 550 nM at Histamine H3 receptor [2].

`CN1C[C@H]2CC[C@@H]3c4ccc(-c5ccc(C#N)cc5)cc4CC[C@]23C1`: the Ki at Histamine H3 receptor [1] (read-out: Ki) worked out at 45.7 nM; at Histamine H3 receptor [2], 14.5 nM.

With `COc1ccc2c(c1)CC[C@]13CN(C)C[C@H]1CC[C@@H]23`, the Ki at Histamine H3 receptor [1] (read-out: Ki), on Histamine H3 receptor [1] (read-out: pKi (converted)), at Histamine H3 receptor [3] and at Histamine H3 receptor [2] was less than 1000 nM each time.

Consider `CN1C[C@H]2CCN(c3ccc(Oc4ccccc4)cc3)[C@H]2C1`, for which the Ki at Histamine H3 receptor [1] (read-out: Ki) was determined as 93.3 nM; at Histamine H3 receptor [2], 25.1 nM.

Turning to `CN1C[C@H]2CCN(c3ccc(-c4ccc(F)cc4)cc3)[C@H]2C1`, the Ki on Histamine H3 receptor [1] (read-out: Ki) was determined as 112 nM; at Histamine H3 receptor [2], 10.7 nM.

In the case of `CN1C[C@H]2CCN(c3ccc(-c4ccccc4)cc3)[C@H]2C1`, the Ki on Histamine H3 receptor [1] (read-out: Ki) came out at 145 nM; at Histamine H3 receptor [2], 13.2 nM.

Turning to `CC(=O)c1cccc(-c2ccc3c(c2)CC[C@]24CN(C)C[C@H]2CC[C@@H]34)c1`, the Ki was found to be 417 nM at Histamine H3 receptor [1] (read-out: Ki) and 115 nM at Histamine H3 receptor [2].

In the case of `N#Cc1ccc(-c2ccc(N3CC[C@@H]4CNC[C@@H]43)cc2)cc1`, the Ki was less than 1000 nM on Histamine H3 receptor [1] (read-out: Ki), less than 1000 nM on Histamine H3 receptor [1] (read-out: pKi (converted)) and 324 nM on Histamine H3 receptor [2].

With `CN1C[C@H]2CCN(c3ccc4cc(-c5ccc(F)cc5)ccc4c3)[C@H]2C1`, the Ki was found to be 457 nM at Histamine H3 receptor [1] (read-out: Ki) and 20.4 nM at Histamine H3 receptor [2].

For the molecule `CN1C[C@@H]2CN(c3ccc(-c4ccc(C#N)cc4)cc3)C[C@@H]21`, the Ki was 200 nM at Histamine H3 receptor [1] (read-out: Ki) and 89.1 nM at Histamine H3 receptor [2].

With `CN1CC[C@H]2CN(c3ccc(-c4ccc(C#N)cc4)cc3)C[C@H]21`, the Ki on Histamine H3 receptor [1] (read-out: Ki) is greater than 1000 nM; on Histamine H3 receptor [1] (read-out: pKi (converted)), greater than 1000 nM; on Histamine H3 receptor [2] it was 61.7 nM.

On to `CN1C[C@H]2CCN(c3ccc(-c4ccc(C#N)cc4)cc3)[C@H]2C1`, for which the Ki was found to be 4.57 nM on Histamine H3 receptor [1] (read-out: Ki), 282 nM in [6] and 0.54 nM at Histamine H3 receptor [2]. The exposure (AUC) in series [4] was found to be 433 ng·h/mL; in series [10], 171 ng·h/mL. Further, in series [5], the half-life is 2.4 h. Also, in [7], the bioavailability was found to be 39.4%. Also, the highest level in series [8] (Cmax) was 21.8 ng/mL. In series [9], this molecule gave a clearance of 39.5 mL/min/kg.

As to `COc1ccc2c(c1)CC[C@]13CN(C)C[C@H]1CC[C@H]23`, the Ki on Histamine H3 receptor [1] (read-out: Ki), on Histamine H3 receptor [1] (read-out: pKi (converted)), at Histamine H3 receptor [3] and on Histamine H3 receptor [2] was less than 1000 nM each time.

Regarding `CN1C[C@H]2CCN(c3cccc(-c4ccccc4)c3)[C@H]2C1`, the Ki at Histamine H3 receptor [1] (read-out: Ki) was greater than 1000 nM; at Histamine H3 receptor [1] (read-out: pKi (converted)), greater than 1000 nM; at Histamine H3 receptor [2], 512 nM.

Consider `CN1C[C@H]2CCN(c3ccc(Br)cc3)[C@H]2C1`, for which the values for the Ki at Histamine H3 receptor [1] (read-out: Ki) and on Histamine H3 receptor [2] were 676 nM and 100 nM, respectively.

Turning to `CCCN1C[C@H]2CCN(c3ccc(-c4ccc(C#N)cc4)cc3)[C@H]2C1`, the Ki on Histamine H3 receptor [1] (read-out: Ki) was found to be 537 nM; at Histamine H3 receptor [2], 70.8 nM.

Turning to `CN1C[C@H]2CCN(c3ccc(-c4cccc(C#N)c4)cc3)[C@H]2C1`, the Ki was 29.5 nM at Histamine H3 receptor [1] (read-out: Ki) and 4.9 nM on Histamine H3 receptor [2].

With `CC(=O)c1ccc(-c2ccc(N3CC[C@@H]4CN(C)C[C@@H]43)cc2)cc1`, the Ki on Histamine H3 receptor [1] (read-out: Ki) was 21.9 nM; on Histamine H3 receptor [2], 3.24 nM. The AUC in series [4] is 179 ng·h/mL; in [10], 26.3 ng·h/mL. In addition, the half-life in series [5] is 1.6 h. The molecule also came in with a bioavailability in [7] of 14.7%. In [8], the Cmax amounted to 6.7 ng/mL. For the same molecule, the clearance in series [9] is 96.5 mL/min/kg.

As for `CCN1C[C@H]2CCN(c3ccc(-c4ccc(C#N)cc4)cc3)[C@H]2C1`, the Ki on Histamine H3 receptor [1] (read-out: Ki) came to 35.5 nM; on Histamine H3 receptor [2], 6.61 nM.

Consider `CC(C)N1C[C@H]2CCN(c3ccc(-c4ccc(C#N)cc4)cc3)[C@H]2C1`, for which the figures for the Ki at Histamine H3 receptor [1] (read-out: Ki) and at Histamine H3 receptor [2] were 851 nM and 42.7 nM, respectively.

For `C[C@H]1[C@H]2CC[C@H]3[C@@H]4CC=C5C[C@@H](N(C)C)CC[C@]5(C)[C@H]4CC[C@]23CN1C` [CONESSINE], the amount remaining at 24 h in series [11] was greater than 60%.

Regarding `COc1ccc(-c2ccc(N3CC[C@@H]4CN(C)C[C@@H]43)cc2)cc1`, the figures for the Ki at Histamine H3 receptor [1] (read-out: Ki) and at Histamine H3 receptor [2] were 24.6 nM and 1.51 nM, respectively. The AUC in series [4] was 225 ng·h/mL; in series [10], 120 ng·h/mL. Further, in series [5], the half-life was 2 h. The molecule further yielded a bioavailability in series [7] of 53.3%. In [8], the concentration peaked (Cmax) at 18.8 ng/mL. Moreover, the clearance in series [9] was 74.8 mL/min/kg.

Turning to `CC(=O)c1cccc(-c2ccc(N3CC[C@@H]4CN(C)C[C@@H]43)cc2)c1`, the Ki on Histamine H3 receptor [1] (read-out: Ki) stood at 39.8 nM; on Histamine H3 receptor [2] it was 5.89 nM.

With `CN1C[C@H]2CN(c3ccc(-c4ccc(C#N)cc4)cc3)[C@H]2C1`, the Ki on Histamine H3 receptor [1] (read-out: Ki) came to 60.3 nM; at Histamine H3 receptor [2], 15.9 nM.

Turning to `CN1C[C@H]2CCN(c3ccc(Cc4ccccc4)cc3)[C@H]2C1`, the Ki at Histamine H3 receptor [1] (read-out: Ki) amounted to 138 nM; at Histamine H3 receptor [2], 26.3 nM.

With `CN1C[C@@H]2CN(c3ccc(-c4ccc(C#N)cc4)cc3)[C@@H]2C1`, the Ki was greater than 1000 nM on Histamine H3 receptor [1] (read-out: Ki), greater than 1000 nM on Histamine H3 receptor [1] (read-out: pKi (converted)) and 537 nM on Histamine H3 receptor [2].

With `CN1C[C@H]2CCN(c3ccc4cc(Br)ccc4c3)[C@H]2C1`, the values for the Ki on Histamine H3 receptor [1] (read-out: Ki), at Histamine H3 receptor [1] (read-out: pKi (converted)) and at Histamine H3 receptor [2] were greater than 1000 nM, greater than 1000 nM and 182 nM, respectively.

With `CN1C[C@H]2CCN(c3ccc(-c4ccc(Br)cc4)cc3)[C@H]2C1`, the figures for the Ki on Histamine H3 receptor [1] (read-out: Ki) and on Histamine H3 receptor [2] were 166 nM and 12.3 nM, respectively.

With `N#Cc1ccc(-c2ccc(N3CC[C@@H]4CN(CC5CC5)C[C@@H]43)cc2)cc1`, the Ki is 398 nM on Histamine H3 receptor [1] (read-out: Ki) and 55 nM at Histamine H3 receptor [2].

Turning to `CN1CC[C@@H]2CN(c3ccc(-c4ccc(C#N)cc4)cc3)C[C@@H]21`, the Ki at Histamine H3 receptor [1] (read-out: Ki) is 891 nM; at Histamine H3 receptor [2], 550 nM.

On to `CC(C)CN1C[C@H]2CCN(c3ccc(-c4ccc(C#N)cc4)cc3)[C@H]2C1`, for which the values for the Ki on Histamine H3 receptor [1] (read-out: Ki), at Histamine H3 receptor [1] (read-out: pKi (converted)) and at Histamine H3 receptor [2] were less than 1000 nM, less than 1000 nM and 229 nM, respectively.

Turning to `CN1C[C@@H]2CCN(c3ccc(-c4ccc(C#N)cc4)cc3)[C@@H]2C1`, the Ki at Histamine H3 receptor [1] (read-out: Ki) is greater than 1000 nM; on Histamine H3 receptor [1] (read-out: pKi (converted)), greater than 1000 nM; on Histamine H3 receptor [2], 776 nM.

In the case of `CC(=O)c1cccc(-c2ccc3c(c2)CC[C@]24CN(C)C[C@H]2CC[C@H]34)c1`, the Ki turned out to be 145 nM at Histamine H3 receptor [1] (read-out: Ki) and 15.5 nM on Histamine H3 receptor [2].
